Measurements published in US20170020909A1, “METHODS OF TREATING GLAUCOMA USING AMP-ACTIVATED PROTEIN KINASE (AMPK) ACTIVATORS” (Massachusetts Eye and Ear Infirmary, priority 2014, published 2017).

Tested on: RhoA
Assay: Immunoblot of p-RhoA (Ser188)/total RhoA in human TM cell lysates
Format: cell-based
Conditions: 0.5 mM AICAR
Procedure: Primary human trabecular meshwork (TM) cells were isolated, in accordance with the Declaration of Helsinki, and maintained in culture as described previously.^63 Independent primary human TM cell lines were generated from donors ranging in age from 35 to 72 years and no known history of ocular disease. Cell cultures were maintained, unless otherwise stated, in Dulbecco's modified eagle medium (Life Technologies, Grand Island, N.Y.) containing 20% fetal bovine serum, 1% L-glutamine (2 mM), and gentamicin (0.1 mg/ml) at 37° C. in a 10% CO2 atmosphere. Only TM cells from third through fifth passage were used. […]
At the conclusion of each experiment for matricellular and ECM protein detection, conditioned media (CM) from TM cell cultures was harvested and centrifuged at 5000 rpm for 10 minutes at 4° C. The supernatant was then concentrated (Amicon Ultra-4 Filter Unit, 10 kDa; Millipore, Milford, Mass.), and protein content quantified using the DC Protein Assay kit adhering to manufacturer's protocols (Bio-Rad, Hercules, Calif.). […] Samples were then centrifuged at 14,000 rpm for 15 minutes at 4° C. and protein content quantified. […] The membranes were then washed three times with 1×TBS-T, scanned, and integrated band intensities were calculated using an infrared imaging system (Odyssey; Li-Cor, Lincoln, Nebr.). […]

For `NC(=O)c1ncn([C@@H]2O[C@H](CO)[C@@H](O)[C@H]2O)c1N` [AICAR, 5-Aminoimidazole-4-carboxamide riboside], the “duration of the phospho-total RhoA ratio increase” value (through 24 hours) was “remained statistically significant through 24 hours” and the “increase of phospho-total RhoA ratio (Ser188)” value (within one hour, human TM cells) was “approximately 10 fold”.
